Assay results as given in patent EP3053944B1, “METHOD FOR PRODUCING POLYALKYLENE GLYCOL DERIVATIVE HAVING AMINO GROUP AT END, POLYMERIZATION INITIATOR FOR USE IN THE SAME, AND ALCOHOL COMPOUND AS RAW MATERIAL FOR THE POLYMERIZATION INITIATOR” (Shin-Etsu Chemical Co., Ltd., priority 2014, dated 2016).

Assays:
Assay type in all cases: physicochemical
[1] = Stability of the initiator when the alkoxide is formed (migration of protective group); settings: on synthesis of the alkoxide
Source text: Since the silicon-oxygen bond is generally stronger than the silicon-nitrogen bond, there is a possibility that exchange reaction between the silicon-nitrogen bond and the silicon-oxygen bond progresses within a molecule during synthesis of a silyl-protected amino group-containing alkoxide in the case in which a five-membered ring or six-membered ring structure containing a silicon-oxygen bond can be formed. Therefore, when polymerization is tried using, for example, a compound represented by the following general formula (0a) as a polymerization initiator, polymerization progresses from the amino group side, not from the alkoxide side, and a target polyalkylene glycol derivative cannot be obtained. In contrast, in the polymerization initiator (for example, the following formulas (1a) and (2a)) represented by the general formulas (1) and/or (2) for use in the present embodiment 2, production of the five-membered or six-membered ring containing a silicon-oxygen bond is suppressed by extending the length of a chain that connects nitrogen and oxygen that constitutes O^-M^+ to 4 or more, so that a stable structure can be formed in a state of being an alkoxide. As a result thereof, polymerization progresses from the alkoxide side, and the target polyalkylene glycol derivative can be obtained. [drawing 36]

[2] = Solubility of polymerization initiators in polymerization solvents (visual observation); set-up: key to solubility to polymerization solvents: Toluene / solubility to polymerization solvents: THF: Excellent: In the case in which cloudiness was not observed at all in the solution by visual observation, the initiator was shown as "excellent"; Poor: in the case in which cloudiness was observed or the initiator did not dissolve at all, or in the case in which the initiator decomposed when the alkoxide was formed from the initiator, the initiator was shown as "poor"; settings: for solubility to polymerization solvents: THF: initiator dissolved in THF at 20 wt.%; for solubility to polymerization solvents: THF / solubility to polymerization solvents: Toluene: visual observation; for solubility to polymerization solvents: Toluene: initiator dissolved in toluene at 20 wt.%; for dissolution in the solvent(s): summary in words of Table 8, THF or toluene, 20 wt.%
Source text: Results of solubility of the initiators 1-2, 6-7, 9-10 and 12, reference initiators 3-5, 8 and 11, and comparative initiators 1 to 8 to polymerization solvents are shown below. THF in each of the products of the initiators 1-2, 6-7, 9-10 and 12, reference initiators 3-5, 8 and 11, and the comparative initiators 1 to 8 synthesized above was distilled away under reduced pressure to extract the polymerization initiators. The results obtained by dissolving each polymerization initiator in each polymerization solvent at a concentration of 20 wt.% are shown. […]

[3] = Visual check for salt precipitation and cloudiness in the THF solution after initiator synthesis
Source text: Among others, as the solvent for use in the [Pre-Step 2], the same solvent as will be used as the polymerization solvent in the subsequent [Step a] as will be described later is preferably used. The reason is because whether the polymerization initiator synthesized in the [Pre-Step 2] dissolves or not in the polymerization solvent for use in the [Step a] can be confirmed in advance during the synthesis of the polymerization initiator in the [Pre-Step 2]. […] […] By confirming whether the precipitation of a salt and […] of the polymerization initiator represented by the general formula (I) in THF, the solubility of the polymerization initiator in the polymerization solvent in the subsequent [Step a] can be confirmed in advance.
In a glove box under a nitrogen atmosphere, […], and after the mineral oil was washed with hexane to be separated, vacuum drying was performed for about two hours to obtain 0.50 g (12.5 mmol) of potassium hydride. Into the flask, 7.71 g of distilled THF was added with a syringe, and 4.44 g (12.8 mmol) of the compound represented by the general formula (iA) was dripped at normal temperature. Stirring was performed at normal temperature for 1 hour and then at 50°C for 2 hours, so that 12.40 g (1.02 mmol/g) of a THF solution of the compound represented by the general formula (IA) was produced. […]

Structure (SMILES) | stability of the initiator [1] | solubility to polymerization solvents: THF [2] | solubility to polymerization solvents: Toluene [2] | dissolution in the solvent(s) [2] | Precipitation of a salt and cloudiness ([3]; (IA) mass/THF solution mass=22.3 wt.%, prepared with potassium naphthalene) | Precipitation of a salt and cloudiness ([3]; (IA) mass/THF solution mass=39.8 wt.%, prepared with potassium hydride)
CC[Si](CC)(CC)N(CCCO)[Si](CC)(CC)CC [Comparative initiator 1, reference compound] | changes in the position protected by a protective group progressed | Poor | Poor | – | – | –
C[Si](C)(C)N(CCCO)[Si](C)(C)C [Comparative initiator 2, reference compound] | changes in the position protected by a protective group progressed | Poor | Poor | – | – | –
C=CCN(CC=C)CCCO [Comparative initiator 3, reference compound] | – | Poor | Poor | did not dissolve in the solvents | – | –
O=C1c2ccccc2C(=O)N1CCCO [Comparative initiator 4, reference compound] | – | Poor | Poor | did not dissolve in the solvents | – | –
CC(C)(C)[Si](C)(C)NCCCO [Comparative initiator 5, reference compound] | changes in the position protected by a protective group progressed | Poor | Poor | – | – | –
C[Si]1(C)CC[Si](C)(C)N1CCCO [Comparative initiator 6, reference compound] | changes in the position protected by a protective group progressed | Poor | Poor | – | – | –
OCCCN(Cc1ccccc1)Cc1ccccc1 [Comparative initiator 7, reference compound] | – | Poor | Poor | did not dissolve in the solvents | – | –
CC(C)(C)OC(=O)N(CCCO)C(=O)OC(C)(C)C [Comparative initiator 8, reference compound] | – | Poor | Poor | did not dissolve in the solvents | – | –
CC[Si](CC)(CC)N(CCCOCCO)[Si](CC)(CC)CC [Initiator 1] | stably existed | Excellent | – | dissolved in the solvent | – | –
CC[Si](CC)(CC)N(CCCOCCOCCO)[Si](CC)(CC)CC [Initiator 2] | stably existed | Excellent | – | dissolved in the solvent | – | –
CC(C)(C)[Si](C)(C)NCCCOCCO [Initiator 6] | stably existed | Excellent | – | dissolved in the solvent | – | –
C[Si]1(C)CC[Si](C)(C)N1CCCOCCO [Initiator 7] | stably existed | Excellent | – | dissolved in the solvent | – | –
CC(C)(C)OC(=O)N(CCCOCCO)C(=O)OC(C)(C)C [Initiator 9] | – | Excellent | – | dissolved in a solvent | – | –
CC[Si](CC)(CC)N(CCCCCCO)[Si](CC)(CC)CC [Initiator 10] | stably existed | – | Excellent | dissolved in the solvent | – | –
C[Si]1(C)CC[Si](C)(C)N1CCCCCCO [Initiator 12] | stably existed | – | Excellent | dissolved in the solvent | – | –
C=CCN(CC=C)CCCOCCO [Ref 3] | – | Excellent | – | dissolved in a solvent | – | –
C=CCN(CC=C)CCCOCCOCCO [Ref 4] | – | Excellent | – | dissolved in a solvent | – | –
O=C1c2ccccc2C(=O)N1CCCOCCOCCOCCO [Ref 5] | – | Excellent | – | dissolved in a solvent | – | –
OCCOCCOCCOCCCN(Cc1ccccc1)Cc1ccccc1 [Ref 8] | – | Excellent | – | dissolved in a solvent | – | –
C=CCN(CC=C)CCCCCCO [Ref 11] | – | – | Excellent | dissolved in a solvent | – | –
CC[Si](CC)(CC)N(CCCOCCO)[Si](CC)(CC)CC [iA] | – | – | – | – | not observed | not observed
